Data from US10457709B2, “Antimicrobial peptides, their variants and uses” (priority 2015, dated 2019).
Like-named read-outs stand apart in the source and are kept apart here. Square brackets hold non-standard residues; d marks the D form. Peptide text beside a SMILES is read from it.

Experiments:
[1] = system: Enterobacter cloacae clinical strains; assay type: cell-based; design: Minimum inhibitory concentration: unit: μg/ml; conditions: microdilution, Muller Hinton broth-cation adjusted, 0.02% BSA, 0.2% acetic acid
How it was run: (§1)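 MIC = lowest concentration without visual growth after 20–24 h at 37° C. Microbroth dilution, 5.0×10^5 cfu/ml, 0.125–128 μg/ml range; MH broth for bacteria, potato dextrose broth for yeasts.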

[2] = system: Proteus mirabilis clinical strains; assay type: cell-based; design: Minimum inhibitory concentration: unit: μg/ml; conditions: microdilution, Muller Hinton broth-cation adjusted, 0.02% BSA, 0.2% acetic acid
How it was run: as §1

[3] = system: Serratia marcescens clinical strains; assay type: cell-based; design: Minimum inhibitory concentration: unit: μg/ml; conditions: microdilution, Muller Hinton broth-cation adjusted, 0.02% BSA, 0.2% acetic acid
How it was run: as §1

[4] = system: Staphylococcus aureus clinical strains; assay type: cell-based; design: Minimum inhibitory concentration: unit: μg/ml; conditions: microdilution, Muller Hinton broth-cation adjusted, 0.02% BSA, 0.2% acetic acid
How it was run: as §1

[5] = system: Streptococcus pneumoniae clinical strains; assay type: cell-based; design: Minimum inhibitory concentration: unit: μg/ml; conditions: microdilution, Muller Hinton broth-cation adjusted, 0.02% BSA, 0.2% acetic acid
How it was run: as §1

[6] = system: Candida albicans clinical strains; test: MIC, clinical yeast strains; assay type: cell-based; design: unit: μg/ml
How it was run: as §1

[7] = system: C. glabrata clinical strains; test: MIC, clinical yeast strains; assay type: cell-based, Candida glabrata; design: unit: µg/ml
How it was run: as §1

[8] = system: C. parapsilosis clinical strains; test: MIC, clinical yeast strains; assay type: cell-based, Candida parapsilosis; design: unit: µg/ml
How it was run: as §1

[9] = system: C. quillermondiae clinical strains; test: MIC, clinical yeast strains; assay type: cell-based, Candida quillermondiae; design: unit: μg/ml; conditions: C. quillermondiae clinical yeast strain 1
How it was run: as §1

[10] = system: Escherichia coli clinical strains; assay type: cell-based; conditions: microdilution, Muller Hinton broth-cation adjusted, 0.02% BSA, 0.2% acetic acid
How it was run: as §1

[11] = system: Klebsiella pneumoniae clinical strains; assay type: cell-based; conditions: microdilution, Muller Hinton broth-cation adjusted, 0.02% BSA, 0.2% acetic acid
How it was run: as §1

[12] = system: Pseudomonas aeruginosa clinical strains; assay type: cell-based; conditions: microdilution, Muller Hinton broth-cation adjusted, 0.02% BSA, 0.2% acetic acid
How it was run: as §1

With `CC(C)C[C@@H](NC(=O)[C@H](N)CCCCN)C(=O)N[C@H](CCCCN)C(=O)N[C@H](Cc1c[nH]c2ccccc12)C(=O)N[C@H](Cc1ccccc1)C(=O)N[C@H](Cc1c[nH]c2ccccc12)C(=O)N[C@H](CC(C)C)C(=O)N[C@H](Cc1ccccc1)C(=O)N[C@H](CCCCN)C(=O)N[C@H](CCCCN)C(=O)N[C@H](CCCNC(=N)N)C(=O)O` [Chain311D] (H-[dK][dL][dK][dW][dF][dW][dL][dF][dK][dK][dR]-OH) the Minimum inhibitory concentration ([1]; Enterobacter cloacae clinical strain 1) was 4, the Minimum inhibitory concentration ([1]; Enterobacter cloacae clinical strain 2) was 4 and the Minimum inhibitory concentration ([1]; Enterobacter cloacae clinical strain 3) was 4. For the same molecule, the Minimum inhibitory concentration ([1]; Enterobacter cloacae clinical strain 4) was 4, the Minimum inhibitory concentration ([1]; Enterobacter cloacae clinical strain 5) was 2 and the Minimum inhibitory concentration ([2]; Proteus mirabilis clinical strain 1) was greater than 128. For the same molecule, the Minimum inhibitory concentration ([2]; Proteus mirabilis clinical strain 2) was 128, the Minimum inhibitory concentration ([2]; Proteus mirabilis clinical strain 3) was 128 and the Minimum inhibitory concentration ([2]; Proteus mirabilis clinical strain 4) was greater than 128. The Minimum inhibitory concentration ([2]; Proteus mirabilis clinical strain 5) was greater than 128, the Minimum inhibitory concentration ([3]; Serratia marcescens clinical strain 1) was greater than 128 and the Minimum inhibitory concentration ([3]; Serratia marcescens clinical strain 2) was greater than 128. For the same molecule, the Minimum inhibitory concentration ([3]; Serratia marcescens clinical strain 3) was greater than 128, the Minimum inhibitory concentration ([3]; Serratia marcescens clinical strain 4) was greater than 128 and the Minimum inhibitory concentration ([3]; Serratia marcescens clinical strain 5) was greater than 128. For the same molecule, the Minimum inhibitory concentration ([4]; Staphylococcus aureus clinical strain 1) was 1, the Minimum inhibitory concentration ([4]; Staphylococcus aureus clinical strain 2) was 1 and the Minimum inhibitory concentration ([4]; Staphylococcus aureus clinical strain 3) was 1. For the same molecule, the Minimum inhibitory concentration ([4]; Staphylococcus aureus clinical strain 4) was 1, the Minimum inhibitory concentration ([4]; Staphylococcus aureus clinical strain 5) was 1 and the Minimum inhibitory concentration ([5]; Streptococcus pneumoniae clinical strain 1) was 16. It also gave a Minimum inhibitory concentration ([5]; Streptococcus pneumoniae clinical strain 2) of 8, a Minimum inhibitory concentration ([5]; Streptococcus pneumoniae clinical strain 3) of 16 and a Minimum inhibitory concentration ([5]; Streptococcus pneumoniae clinical strain 4) of 4. The Minimum inhibitory concentration ([5]; Streptococcus pneumoniae clinical strain 5) was 8, the Minimum inhibitory concentration ([6]; Candida albicans clinical yeast strain 1) was 8 and the Minimum inhibitory concentration ([6]; Candida albicans clinical yeast strain 2) was 8. For the same molecule, the Minimum inhibitory concentration ([6]; Candida albicans clinical yeast strain 3) was 8, the Minimum inhibitory concentration ([6]; Candida albicans clinical yeast strain 4) was 16 and the Minimum inhibitory concentration ([6]; Candida albicans clinical yeast strain 5) was 16. For the same molecule, the Minimum inhibitory concentration ([7]; C. glabrata clinical yeast strain 1) was 16, the Minimum inhibitory concentration ([7]; C. glabrata clinical yeast strain 2) was 16 and the Minimum inhibitory concentration ([7]; C. glabrata clinical yeast strain 3) was 8. For the same molecule, the Minimum inhibitory concentration ([7]; C. glabrata clinical yeast strain 4) was 64, the Minimum inhibitory concentration ([8]; C. parapsilosis clinical yeast strain 1) was 16 and the Minimum inhibitory concentration ([8]; C. parapsilosis clinical yeast strain 2) was 8. For the same molecule, the Minimum inhibitory concentration ([8]; C. parapsilosis clinical yeast strain 3) was 8, the Minimum inhibitory concentration ([8]; C. parapsilosis clinical yeast strain 4) was 8 and the Minimum inhibitory concentration [9] was 4. For the same molecule, the Minimum inhibitory concentration ([10]; Escherichia coli clinical strain 1) was 2, the Minimum inhibitory concentration ([10]; Escherichia coli clinical strain 2) was 2 and the Minimum inhibitory concentration ([10]; Escherichia coli clinical strain 3) was 1. The Minimum inhibitory concentration ([10]; Escherichia coli clinical strain 4) was 0.5, the Minimum inhibitory concentration ([10]; Escherichia coli clinical strain 5) was 1 and the Minimum inhibitory concentration ([11]; Klebsiella pneumoniae clinical strain 1) was 8. For the same molecule, the Minimum inhibitory concentration ([11]; Klebsiella pneumoniae clinical strain 2) was 8, the Minimum inhibitory concentration ([11]; Klebsiella pneumoniae clinical strain 3) was 4 and the Minimum inhibitory concentration ([11]; Klebsiella pneumoniae clinical strain 4) was 8. For the same molecule, the Minimum inhibitory concentration ([11]; Klebsiella pneumoniae clinical strain 5) was 4, the Minimum inhibitory concentration ([12]; Pseudomonas aeruginosa clinical strain 1) was 16 and the Minimum inhibitory concentration ([12]; Pseudomonas aeruginosa clinical strain 2) was 8. For the same molecule, the Minimum inhibitory concentration ([12]; Pseudomonas aeruginosa clinical strain 3) was 16, the Minimum inhibitory concentration ([12]; Pseudomonas aeruginosa clinical strain 4) was 8 and the Minimum inhibitory concentration ([12]; Pseudomonas aeruginosa clinical strain 5) was 4.
